Assay results taken from patent publication US9938263B2, “Gamma-secretase modulators” (The Regents of the University of California, A California …, priority 2013, dated 2018).

test system: Aβ42; experiment: cell-based moderate throughput Aβ42 ELISA in SH-SY5Y-APP cells; settings: Homo sapiens, SH-SY5Y, human SHSY5Y neuroblastoma cells stably overexpressing human APP, Aβ42 secreted into media
Description: A variety of cell lines normally produce and secrete various Aβ peptide alloforms into the media upon culture in supportive media. Examples of cell lines routinely used to assess the ability of a compound to inhibit formation specific Aβ peptide alloforms such as Aβ42, upon treatment of the cells with various concentrations of the compound for approximately 16 h followed by determining the concentration of the various Aβ peptide alloforms in the media both with and without treatment with the compound [(e.g., HEK-293, N2a delta E9/Swe, SHSY5Y and primary cerebral cortical neuronal cultures from embryonic day 18 (E18) embryos from timed pregnant WT Sprague-Dawley rats) (Netzer, W I et al., Gleevec inhibits β-amyloid production but not Notch cleavage. See e.g., Proc. Natl. Acad. Sci. U.S.A. 2003; 100:12444-12449.
The SH-SY5Y-APP human cell line was derived by transfecting a human neuroblastoma (SH-SY5Y) cell line with a plasmid expressing wild type human APP751 cDNA and selecting for stable expression of human APP and human Aβ. In each case, the levels of Aβ42 or Aβtotal or Aβ38 peptides secreted into the media of these cells were measured using either two-site monoclonal antibody (mAb)-based sandwich ELISA assays (described herein for Aβ42 and Aβtotal) or in the case of Aβ38 EC50's, using either the Meso Scale Aβ38, 40, 42 triplex kit along with the Meso Scale Sector Imager 6000 according to the manufacturer's protocols. This SH-SY5Y-APP human cell line was used for all cell-based Aβ peptide immunochemical assays.
SH-SY5Y-APP cells were plated at 75,000 cells/well in 96-well tissue culture plates. After 16-18 h, the culture medium was replaced with fresh medium containing either compound or vehicle. Replicates of 3 wells per test concentration were used, with 10 concentrations at ½ log step intervals. Vehicle (0.12% DMSO) is included as a control.
Compounds disclosed herein were synthesized and assayed for biological activity (EC50) in a cell-based moderate throughput Aβ42 ELISA that utilizes human SHSY5Y neuroblastoma cells stably overexpressing human […] wild-type, as known in the art.

IC50 [nM]	Structure (SMILES)
53	COc1nc(-c2csc(N3CC(O)Cn4nc5c(c43)CCC5)n2)ccc1-n1cnc(C)c1 (stereo not drawn) [15495 A]
56	CCn1nc2c(c1Nc1nc(-c3ccc(-n4cnc(C)c4)c(OC)n3)cs1)CCCC2 [Cmpd 003077]
71	COc1nc(-c2csc(Nc3c4c(nn3C(C)(C)C)CCCC4)n2)cnc1-n1cnc(C)c1 [Cmpd 004019]
57	CCn1nc(C(F)(F)F)cc1Nc1nc(-c2ccc(-n3cnc(C)c3)c(OC)n2)cs1 [Cmpd 004102]
38	CCn1nc2c(c1Nc1nc(-c3ccc(-n4cnc(C)c4)c(OC)n3)cs1)CCC2(C)C [Cmpd 004365]
6	COc1nc(-c2csc(N3CCCn4nc5c(c43)CCCC5)n2)ccc1-n1cnc(C)c1 [Cmpd 13636]
20	COc1nc(-c2csc(Nc3c4c(nn3CC(C)(C)O)CCCC4)n2)ccc1-n1cnc(C)c1 [Cmpd 13674]
17	COc1nc(-c2csc(Nc3c4c(nn3CCF)CCCC4)n2)ccc1-n1cnc(C)c1 [Cmpd 13680]
35	CCn1nc2c(c1Nc1nc(-c3ccc(-n4cnc(C)c4)c(OC)n3)c(CO)s1)CCCC2 [Cmpd 13765]
11	COc1nc(-c2csc(Nc3cc(C4(C(F)(F)F)CC4)nn3C)n2)ccc1-n1cnc(C)c1 [Cmpd 13887]
67	COc1nc(-c2csc(Nc3cc(C4(C)CC4)nn3CCF)n2)ccc1-n1cnc(C)c1 [Cmpd 13922]
39	COc1nc(-c2csc(Nc3c4c(nn3CC(C)(C)O)CCC4)n2)ccc1-n1cnc(C)c1 [Cmpd 14104]
64	COc1nc(-c2csc(Nc3c4c(nn3CCF)CCC4)n2)ccc1-n1cnc(C)c1 [Cmpd 14106]
85	CCn1nc2c(c1Nc1nc(-c3ccc(-n4cnc(C)c4)c(OC)n3)c(CN(C)C)s1)CCCC2 [Cmpd 14508]
22	CCn1nc2c(c1Nc1csc(-c3ccc(-n4cnc(C)c4)c(OC)n3)n1)CCCC2 [Cmpd 14777]
57	COc1nc(-c2csc(N3C/C(=N\O)Cn4nc5c(c43)CCC5)n2)ccc1-n1cnc(C)c1 [Cmpd 14839]
65	COc1nc(-c2csc(N3CCC(C(C)(C)O)n4nc5c(c43)CCCC5)n2)ccc1-n1cnc(C)c1 (stereo not drawn) [Cmpd 15002]
55	COc1nc(-c2csc(N3C/C(=N\O)Cn4nc5c(c43)CCCC5)n2)ccc1-n1cnc(C)c1 [Cmpd 15004]
99	COc1nc(-c2nc(Nc3c4c(nn3CCF)CCCC4)sc2CN2CCC(F)(F)C2)ccc1-n1cnc(C)c1 [Cmpd 15473]
14	CCn1nc(C2(C)CC2)cc1Nc1csc(-c2ccc(-n3cnc(C)c3)c(OC)n2)n1 [Cmpd 15587]
12	COc1nc(-c2nc(N3CC(C)Cn4nc5c(c43)CCCC5)cs2)ccc1-n1cnc(C)c1 (stereo not drawn) [Cmpd 15830]
30	COc1nc(-c2nc(N3CC(C)Cn4nc(C5(C)CC5)cc43)cs2)ccc1-n1cnc(C)c1 (stereo not drawn) [Cmpd 15868]

The next lines start with the compound.

Structure (SMILES)	IC50 [nM]
CCn1nc2c(c1Nc1nc(-c3ccc(-n4cnc(C)c4)c(OC)n3)cs1)CCC2 [Cmpd 003783]	33
COc1nc(-c2csc(Nc3c4c(nn3C)CCC4)n2)ccc1-n1cnc(C)c1 [Cmpd 004346]	77
COc1nc(-c2csc(Nc3c4c(nn3CC(F)(F)F)CCC4)n2)ccc1-n1cnc(C)c1 [Cmpd 004723]	35
CCn1nc(C2(C)CC2)cc1Nc1nc(-c2ccc(-n3cnc(C)c3)c(OC)n2)cs1 [Cmpd 13563]	24
COc1nc(-c2csc(Nc3cc(C4(C)CC4)nn3C)n2)ccc1-n1cnc(C)c1 [Cmpd 13886]	75
COc1nc(-c2csc(Nc3cc(C4(C)CC4)nn3CC(F)(F)F)n2)ccc1-n1cnc(C)c1 [Cmpd 13921]	27
COc1nc(-c2csc(N3CCCn4nc5c(c43)CCC5)n2)ccc1-n1cnc(C)c1 [Cmpd 14035]	19
CCn1nc2c(c1Nc1nc(-c3cnc(-n4cnc(C)c4)c(OC)n3)cs1)CCCC2 [Cmpd 14257]	89
CCn1nc2c(c1Nc1nc(-c3ccc(-n4cnc(C)c4)c(OC)n3)c(CN3CCN(C)CC3)s1)CCCC2 [Cmpd 14548]	98
COc1nc(-c2csc(N3CC(F)Cn4nc5c(c43)CCCC5)n2)ccc1-n1cnc(C)c1 (stereo not drawn) [Cmpd 14676]	10
COc1nc(-c2csc(N3CC(N4C(=O)CCC4=O)Cn4nc5c(c43)CCCC5)n2)ccc1-n1cnc(C)c1 (stereo not drawn) [Cmpd 14780]	67
COc1nc(-c2csc(N3CC(N(C)C)Cn4nc5c(c43)CCCC5)n2)ccc1-n1cnc(C)c1 (stereo not drawn) [Cmpd 14885]	59
C=C1CN(c2nc(-c3ccc(-n4cnc(C)c4)c(OC)n3)cs2)c2c3c(nn2C1)CCCC3 [Cmpd 14945]	35
COc1nc(-c2csc(N3CC(N4CCCC4)Cn4nc5c(c43)CCCC5)n2)ccc1-n1cnc(C)c1 (stereo not drawn) [Cmpd 14946]	19
COc1nc(-c2csc(N3CC(O)(CO)Cn4nc5c(c43)CCCC5)n2)ccc1-n1cnc(C)c1 (stereo not drawn) [Cmpd 15001]	34
COc1nc(-c2nc(Nc3c4c(nn3CCF)CCCC4)sc2CN2CCN(C)CC2)ccc1-n1cnc(C)c1 [Cmpd 15003]	50
CO/N=C1\CN(c2nc(-c3ccc(-n4cnc(C)c4)c(OC)n3)cs2)c2c3c(nn2C1)CCCC3 [Cmpd 15188]	76
COc1nc(-c2nc(N3CCCn4nc5c(c43)CCCC5)cs2)ccc1-n1cnc(C)c1 [Cmpd 15635]	7
COc1nc(-c2nc(N3CCCn4nc(C5(C)CC5)cc43)cs2)ccc1-n1cnc(C)c1 [Cmpd 15666]	18
COc1nc(-c2nc(N3CCCn4nc5c(c43)CCC5)cs2)ccc1-n1cnc(C)c1 [Cmpd 15669]	5
COc1nc(-c2nc(N3CC(C)Cn4nc5c(c43)CCC5)cs2)ccc1-n1cnc(C)c1 (stereo not drawn) [Cmpd 15670]	16
COc1nc(-c2nc(Nc3c4c(nn3CCF)CCCC4)cs2)ccc1-n1cnc(C)c1 [Cmpd 15717]	48
COc1nc(-c2nc(Nc3cc(C4(C)CC4)nn3CCF)cs2)ccc1-n1cnc(C)c1 [Cmpd 15746]	56
COc1nc(-c2nc(N3CCCn4nc5c(c43)CCCC5)ns2)ccc1-n1cnc(C)c1 [Cmpd 16211]	41

same assay, conditions: human SHSY5Y neuroblastoma cells stably overexpressing human APP, Aβ42 secreted into media

IC50 [nM]	Structure (SMILES)
5	COc1nc(-c2csc(N3CC(O)Cn4nc5c(c43)CCCC5)n2)ccc1-n1cnc(C)c1 (stereo not drawn) [14789 A]
30	COc1nc(-c2csc(N3CC(O)Cn4nc5c(c43)CCCC5)n2)ccc1-n1cnc(C)c1 (stereo not drawn) [14789 B]

Continued, compound first:

Structure (SMILES)	IC50 [nM]
COc1nc(-c2csc(N3CC(O)Cn4nc5c(c43)CCC5)n2)ccc1-n1cnc(C)c1 (stereo not drawn) [15496 B]	33
COc1nc(-c2csc(N3CC(O)Cn4nc5c(c43)CCC5)n2)ccc1-n1cnc(C)c1 (stereo not drawn) [Cmpd 14200]	44
COc1nc(-c2csc(N3CC(O)Cn4nc5c(c43)CCCC5)n2)ccc1-n1cnc(C)c1 (stereo not drawn) [Cmpd 14507]	17
